Measured values reported in ChEMBL document CHEMBL3991601, “The target landscape of clinical kinase drugs” (Science, 2017).
Activity calls are given as the source filed them. For most assays here, no stated cut-off is given here; in the data, actives have a measured Kd and inactives only a lower limit.

What was measured:
[1] = biological target: T1, Mitogen-activated protein kinase kinase kinase 5 (Homo sapiens, UniProt Q99683)
T1 sequence (Q99683 whole entry): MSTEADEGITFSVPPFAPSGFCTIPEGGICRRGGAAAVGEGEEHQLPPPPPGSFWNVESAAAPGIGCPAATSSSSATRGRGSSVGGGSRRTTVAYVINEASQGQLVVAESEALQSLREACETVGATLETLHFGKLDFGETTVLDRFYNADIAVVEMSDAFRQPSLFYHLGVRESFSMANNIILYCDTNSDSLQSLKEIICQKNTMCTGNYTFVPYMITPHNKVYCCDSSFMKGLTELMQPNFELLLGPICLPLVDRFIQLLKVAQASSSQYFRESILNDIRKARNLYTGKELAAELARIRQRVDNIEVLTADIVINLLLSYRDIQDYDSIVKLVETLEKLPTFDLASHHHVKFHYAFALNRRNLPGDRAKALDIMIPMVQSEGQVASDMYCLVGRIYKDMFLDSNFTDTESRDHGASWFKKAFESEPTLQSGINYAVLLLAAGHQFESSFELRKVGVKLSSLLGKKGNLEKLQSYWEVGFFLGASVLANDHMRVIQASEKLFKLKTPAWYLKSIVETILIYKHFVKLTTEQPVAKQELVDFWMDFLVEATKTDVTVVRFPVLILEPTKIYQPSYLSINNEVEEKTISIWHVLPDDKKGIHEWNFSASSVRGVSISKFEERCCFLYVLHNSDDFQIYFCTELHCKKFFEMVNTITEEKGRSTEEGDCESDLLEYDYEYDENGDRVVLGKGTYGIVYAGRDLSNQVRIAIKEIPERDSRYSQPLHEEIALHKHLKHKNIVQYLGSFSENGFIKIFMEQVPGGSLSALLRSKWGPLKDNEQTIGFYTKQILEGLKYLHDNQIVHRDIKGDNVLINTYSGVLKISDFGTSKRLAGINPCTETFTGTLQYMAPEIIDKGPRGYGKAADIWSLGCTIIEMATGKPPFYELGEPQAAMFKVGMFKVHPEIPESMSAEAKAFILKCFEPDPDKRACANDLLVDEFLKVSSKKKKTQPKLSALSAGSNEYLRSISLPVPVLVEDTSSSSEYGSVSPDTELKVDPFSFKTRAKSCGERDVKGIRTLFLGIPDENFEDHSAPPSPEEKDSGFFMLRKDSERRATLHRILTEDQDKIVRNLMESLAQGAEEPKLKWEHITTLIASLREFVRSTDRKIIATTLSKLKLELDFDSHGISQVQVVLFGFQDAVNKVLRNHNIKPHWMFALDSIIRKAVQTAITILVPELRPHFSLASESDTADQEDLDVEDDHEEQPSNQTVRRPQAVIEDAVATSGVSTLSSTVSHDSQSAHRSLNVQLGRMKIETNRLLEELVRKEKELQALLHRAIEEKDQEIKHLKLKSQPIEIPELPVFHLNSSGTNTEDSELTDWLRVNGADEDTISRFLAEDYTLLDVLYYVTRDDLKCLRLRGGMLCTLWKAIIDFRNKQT

[2] = biological target: T2, Bone morphogenetic protein receptor type-2 (Homo sapiens, UniProt Q13873)
T2 sequence (Q13873 whole entry): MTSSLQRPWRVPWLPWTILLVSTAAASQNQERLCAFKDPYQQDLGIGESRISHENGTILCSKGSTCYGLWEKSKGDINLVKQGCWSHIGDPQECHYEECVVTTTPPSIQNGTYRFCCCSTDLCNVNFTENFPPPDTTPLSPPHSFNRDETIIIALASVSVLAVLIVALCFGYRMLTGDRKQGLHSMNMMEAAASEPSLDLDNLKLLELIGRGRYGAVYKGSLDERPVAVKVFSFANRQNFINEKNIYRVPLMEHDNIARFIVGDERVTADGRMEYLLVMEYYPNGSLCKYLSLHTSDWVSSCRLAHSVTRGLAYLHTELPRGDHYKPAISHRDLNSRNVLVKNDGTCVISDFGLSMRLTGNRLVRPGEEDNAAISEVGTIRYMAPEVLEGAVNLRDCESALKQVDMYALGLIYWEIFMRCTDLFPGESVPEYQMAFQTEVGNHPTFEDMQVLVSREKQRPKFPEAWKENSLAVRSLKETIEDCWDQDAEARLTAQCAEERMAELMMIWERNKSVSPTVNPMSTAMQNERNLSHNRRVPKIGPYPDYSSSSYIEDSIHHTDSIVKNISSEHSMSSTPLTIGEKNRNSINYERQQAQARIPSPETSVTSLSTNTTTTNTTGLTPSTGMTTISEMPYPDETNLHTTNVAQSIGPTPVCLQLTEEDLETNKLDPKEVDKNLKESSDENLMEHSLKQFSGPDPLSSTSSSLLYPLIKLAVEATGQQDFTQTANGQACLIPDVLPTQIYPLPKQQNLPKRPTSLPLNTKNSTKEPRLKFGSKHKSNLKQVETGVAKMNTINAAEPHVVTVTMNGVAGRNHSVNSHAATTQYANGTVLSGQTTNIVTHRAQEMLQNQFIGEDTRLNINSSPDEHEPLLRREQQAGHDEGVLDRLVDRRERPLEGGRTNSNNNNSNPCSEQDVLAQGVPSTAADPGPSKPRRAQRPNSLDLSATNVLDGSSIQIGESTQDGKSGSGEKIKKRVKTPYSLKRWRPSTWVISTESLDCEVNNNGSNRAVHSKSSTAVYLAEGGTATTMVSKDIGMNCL

[3] = biological target: Interleukin-1 receptor-associated kinase 1 (Homo sapiens, UniProt P51617)
[4] = biological target: Elongation factor Tu, mitochondrial (Homo sapiens, UniProt P49411)
[5] = biological target: AP2-associated protein kinase 1 (Homo sapiens, UniProt Q2M2I8)
[6] = biological target: Serine/threonine-protein kinase/endoribonuclease IRE2 (Homo sapiens, UniProt Q76MJ5)
[7] = biological target: cAMP-dependent protein kinase catalytic subunit alpha (Homo sapiens, UniProt P17612)
[8] = biological target: Tyrosine-protein kinase Fyn (Homo sapiens, UniProt P06241)
Sequence of Tyrosine-protein kinase Fyn (P06241 whole entry): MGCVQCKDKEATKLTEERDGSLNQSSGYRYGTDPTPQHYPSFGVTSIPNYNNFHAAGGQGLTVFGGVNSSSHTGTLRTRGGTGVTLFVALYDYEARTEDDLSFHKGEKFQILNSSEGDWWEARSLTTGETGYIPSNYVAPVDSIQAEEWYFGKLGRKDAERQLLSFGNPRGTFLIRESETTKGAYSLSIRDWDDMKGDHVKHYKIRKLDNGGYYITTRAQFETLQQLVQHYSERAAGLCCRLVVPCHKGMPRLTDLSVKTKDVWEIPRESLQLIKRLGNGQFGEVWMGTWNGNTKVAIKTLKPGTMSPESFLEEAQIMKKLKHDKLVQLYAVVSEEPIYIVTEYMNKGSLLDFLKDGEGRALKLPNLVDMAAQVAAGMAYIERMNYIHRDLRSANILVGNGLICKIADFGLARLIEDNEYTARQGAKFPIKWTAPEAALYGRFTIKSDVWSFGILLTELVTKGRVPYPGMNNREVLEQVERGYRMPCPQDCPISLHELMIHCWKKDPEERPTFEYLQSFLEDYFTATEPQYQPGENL

Sequence of Interleukin-1 receptor-associated kinase 1 (P51617 whole entry): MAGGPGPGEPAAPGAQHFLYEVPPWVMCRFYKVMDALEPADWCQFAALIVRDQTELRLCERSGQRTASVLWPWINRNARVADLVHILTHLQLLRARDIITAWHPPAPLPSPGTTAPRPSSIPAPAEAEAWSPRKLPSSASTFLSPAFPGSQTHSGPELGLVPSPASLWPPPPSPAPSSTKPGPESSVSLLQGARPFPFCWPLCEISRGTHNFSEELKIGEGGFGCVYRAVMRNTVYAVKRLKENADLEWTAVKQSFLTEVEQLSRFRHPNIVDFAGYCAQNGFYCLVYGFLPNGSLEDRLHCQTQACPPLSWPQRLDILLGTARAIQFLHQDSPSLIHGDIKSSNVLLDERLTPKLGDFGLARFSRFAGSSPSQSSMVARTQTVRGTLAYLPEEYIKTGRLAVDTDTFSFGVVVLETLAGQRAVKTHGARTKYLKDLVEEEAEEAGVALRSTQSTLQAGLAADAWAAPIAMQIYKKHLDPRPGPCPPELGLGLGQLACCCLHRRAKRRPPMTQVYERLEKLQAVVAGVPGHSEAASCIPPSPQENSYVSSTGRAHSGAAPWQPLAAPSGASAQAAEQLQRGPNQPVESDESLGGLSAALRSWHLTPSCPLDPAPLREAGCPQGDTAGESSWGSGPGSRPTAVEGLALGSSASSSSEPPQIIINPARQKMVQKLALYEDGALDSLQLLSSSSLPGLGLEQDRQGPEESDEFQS
Sequence of Serine/threonine-protein kinase/endoribonuclease IRE2 (Q76MJ5 whole entry): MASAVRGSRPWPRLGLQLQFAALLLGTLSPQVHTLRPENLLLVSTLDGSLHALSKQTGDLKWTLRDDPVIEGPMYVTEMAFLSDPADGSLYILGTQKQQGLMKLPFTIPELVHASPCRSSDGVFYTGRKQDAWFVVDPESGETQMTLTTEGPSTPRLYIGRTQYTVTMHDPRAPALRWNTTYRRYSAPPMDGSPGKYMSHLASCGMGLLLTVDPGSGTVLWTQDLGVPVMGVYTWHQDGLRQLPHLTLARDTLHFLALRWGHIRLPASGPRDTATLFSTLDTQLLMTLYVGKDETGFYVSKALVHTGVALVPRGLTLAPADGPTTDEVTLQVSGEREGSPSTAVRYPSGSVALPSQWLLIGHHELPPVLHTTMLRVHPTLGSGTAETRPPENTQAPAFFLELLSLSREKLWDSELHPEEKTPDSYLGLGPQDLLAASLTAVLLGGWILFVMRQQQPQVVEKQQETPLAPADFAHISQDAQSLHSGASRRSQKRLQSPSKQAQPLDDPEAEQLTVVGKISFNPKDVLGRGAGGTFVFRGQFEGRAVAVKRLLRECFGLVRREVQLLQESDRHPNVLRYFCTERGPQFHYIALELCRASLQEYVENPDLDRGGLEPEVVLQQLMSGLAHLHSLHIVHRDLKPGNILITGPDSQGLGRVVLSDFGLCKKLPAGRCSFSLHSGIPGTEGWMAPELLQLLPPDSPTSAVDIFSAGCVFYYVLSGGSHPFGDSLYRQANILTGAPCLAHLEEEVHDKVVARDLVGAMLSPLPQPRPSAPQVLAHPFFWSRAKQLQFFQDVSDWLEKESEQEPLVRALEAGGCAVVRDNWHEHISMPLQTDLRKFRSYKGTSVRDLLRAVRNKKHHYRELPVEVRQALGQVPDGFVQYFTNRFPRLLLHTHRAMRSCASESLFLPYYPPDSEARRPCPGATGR
Sequence of AP2-associated protein kinase 1 (Q2M2I8 whole entry): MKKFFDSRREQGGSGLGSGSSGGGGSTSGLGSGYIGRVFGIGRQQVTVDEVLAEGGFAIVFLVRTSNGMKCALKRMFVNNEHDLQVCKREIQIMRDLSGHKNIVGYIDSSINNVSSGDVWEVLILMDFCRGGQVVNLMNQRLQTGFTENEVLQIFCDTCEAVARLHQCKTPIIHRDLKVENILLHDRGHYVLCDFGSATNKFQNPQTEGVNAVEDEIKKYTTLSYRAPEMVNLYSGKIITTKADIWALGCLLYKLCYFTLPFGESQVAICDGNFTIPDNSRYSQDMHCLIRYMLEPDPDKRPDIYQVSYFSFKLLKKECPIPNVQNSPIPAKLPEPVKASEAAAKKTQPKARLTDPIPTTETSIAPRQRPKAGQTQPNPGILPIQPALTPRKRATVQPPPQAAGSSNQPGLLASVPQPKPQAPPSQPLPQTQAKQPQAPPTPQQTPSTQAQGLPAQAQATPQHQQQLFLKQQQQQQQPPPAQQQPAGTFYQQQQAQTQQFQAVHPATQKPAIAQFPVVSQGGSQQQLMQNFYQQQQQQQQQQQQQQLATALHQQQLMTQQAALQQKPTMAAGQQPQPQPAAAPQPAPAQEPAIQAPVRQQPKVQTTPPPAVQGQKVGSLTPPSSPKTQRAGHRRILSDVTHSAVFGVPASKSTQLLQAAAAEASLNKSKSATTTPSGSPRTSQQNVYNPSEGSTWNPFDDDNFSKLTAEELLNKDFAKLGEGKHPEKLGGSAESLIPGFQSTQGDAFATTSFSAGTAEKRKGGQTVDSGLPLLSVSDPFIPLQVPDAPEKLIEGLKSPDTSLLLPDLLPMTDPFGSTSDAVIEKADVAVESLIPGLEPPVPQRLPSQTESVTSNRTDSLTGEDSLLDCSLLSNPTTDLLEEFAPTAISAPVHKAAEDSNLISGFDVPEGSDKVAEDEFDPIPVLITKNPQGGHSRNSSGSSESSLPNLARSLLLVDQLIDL

| SMILES | Kd [1] | Kd [2] | Kd [3] | Kd [4] | Kd [5] | Kd [6] | Kd [7] | Kd [8] |
| --- | --- | --- | --- | --- | --- | --- | --- | --- |
| CCN(CCCOc1ccc2c(Nc3cc(CC(=O)Nc4cccc(F)c4)n[nH]3)ncnc2c1)CCOP(=O)(O)O [BARASERTIB] | > 30 µM (inactive) | > 30 µM (inactive) | > 30 µM (inactive) | > 30 µM (inactive) | > 30 µM (inactive) | > 30 µM (inactive) |  |  |
| O=C(NC[C@H](O)CO)c1ccncc1Nc1ccc(I)cc1F [PIMASERTIB] | > 30 µM (inactive) | > 30 µM (inactive) | > 30 µM (inactive) | > 30 µM (inactive) | > 30 µM (inactive) | > 30 µM (inactive) | > 30 µM (inactive) | > 30 µM (inactive) |
| O=C(NOC[C@H](O)CO)c1ccc(F)c(F)c1Nc1ccc(I)cc1F [MIRDAMETINIB] | > 30 µM (inactive) | > 30 µM (inactive) | > 30 µM (inactive) | > 30 µM (inactive) | > 30 µM (inactive) | > 30 µM (inactive) | > 30 µM (inactive) | > 30 µM (inactive) |
| COc1cc(Nc2ncc(F)c(Nc3ccc4c(n3)N(COP(=O)(O)O)C(=O)C(C)(C)O4)n2)cc(OC)c1OC [FOSTAMATINIB] | > 30 µM (inactive) | > 30 µM (inactive) | > 30 µM (inactive) | > 30 µM (inactive) | > 30 µM (inactive) | > 30 µM (inactive) | > 30 µM (inactive) | > 30 µM (inactive) |
| COc1cc2c(Oc3ccc4[nH]c(C)cc4c3F)ncnc2cc1OCCCN1CCCC1 [CEDIRANIB] |  |  |  | > 30 µM (inactive) |  | > 30 µM (inactive) |  | > 30 µM (inactive) |
| CNC(=O)c1cc(COc2nnc(Nc3ccc(Cl)cc3)c3ccoc23)ccn1 [TELATINIB] | > 30 µM (inactive) | > 30 µM (inactive) | > 30 µM (inactive) | > 30 µM (inactive) | > 30 µM (inactive) | > 30 µM (inactive) | > 30 µM (inactive) | > 30 µM (inactive) |
| COc1ccc(-c2ccc3ncc4c(c3c2)n(-c2ccc(N3CCNCC3)c(C(F)(F)F)c2)c(=O)n4C)cn1 [BGT-226 FREE BASE] | > 30 µM (inactive) | > 30 µM (inactive) | > 30 µM (inactive) | > 30 µM (inactive) | > 30 µM (inactive) | > 30 µM (inactive) | > 30 µM (inactive) | > 30 µM (inactive) |
| O=S(=O)(c1cccc2c(O)nccc12)N1CCCNCC1 [HYDROXYFASUDIL] | > 30 µM (inactive) | > 30 µM (inactive) | > 30 µM (inactive) | > 30 µM (inactive) | > 30 µM (inactive) | > 30 µM (inactive) |  | > 30 µM (inactive) |
| CCN1CCN(Cc2ccc(Nc3ncc(F)c(-c4cc(F)c5nc(C)n(C(C)C)c5c4)n3)nc2)CC1 [ABEMACICLIB] | > 30 µM (inactive) | > 30 µM (inactive) | 0.126 µM (active) | > 30 µM (inactive) |  | > 30 µM (inactive) | > 30 µM (inactive) | > 30 µM (inactive) |
| CC1(COc2ccc3c(c2)ncn3-c2ccc3cccc(N4CCC(N)CC4)c3n2)COC1 [CRENOLANIB] | > 30 µM (inactive) | > 30 µM (inactive) |  | > 30 µM (inactive) | > 30 µM (inactive) | > 30 µM (inactive) | > 30 µM (inactive) | > 30 µM (inactive) |
| CC(C)CC(=O)Nc1[nH]nc2c1CN(C(=O)C1CCN(C)CC1)C2(C)C [PHA-793887] | > 30 µM (inactive) | > 30 µM (inactive) |  | > 30 µM (inactive) | > 30 µM (inactive) | > 30 µM (inactive) | > 30 µM (inactive) | > 30 µM (inactive) |
| C=CCn1c(=O)c2cnc(Nc3ccc(N4CCN(C)CC4)cc3)nc2n1-c1cccc(C(C)(C)O)n1 [ADAVOSERTIB] | > 30 µM (inactive) | > 30 µM (inactive) | > 30 µM (inactive) | > 30 µM (inactive) | > 30 µM (inactive) | > 30 µM (inactive) | > 30 µM (inactive) |  |
| C[C@]1(O)C[C@@H](c2nc(-c3ccc4ccc(-c5ccccc5)nc4c3)c3c(N)nccn32)C1 [LINSITINIB] | > 30 µM (inactive) | > 30 µM (inactive) |  | > 30 µM (inactive) | > 30 µM (inactive) | > 30 µM (inactive) |  |  |
| O=S(=O)(c1cccc2cnccc12)N1CCCNCC1 [FASUDIL] | > 30 µM (inactive) | > 30 µM (inactive) | > 30 µM (inactive) | > 30 µM (inactive) | > 30 µM (inactive) | > 30 µM (inactive) |  | > 30 µM (inactive) |
| CN(c1ncccc1CNc1nc(Nc2ccc3c(c2)CC(=O)N3)ncc1C(F)(F)F)S(C)(=O)=O [PF-00562271] | > 30 µM (inactive) | > 30 µM (inactive) |  | > 30 µM (inactive) | > 30 µM (inactive) | > 30 µM (inactive) | > 30 µM (inactive) |  |
| NC[C@@](O)(c1ccc(Cl)cc1)c1ccc(-c2cn[nH]c2)cc1 [AT-13148] | > 30 µM (inactive) | > 30 µM (inactive) | > 30 µM (inactive) | > 30 µM (inactive) | > 30 µM (inactive) |  | 0.015 µM (active) | > 30 µM (inactive) |
| Cn1c(=O)n(-c2ccc(C(C)(C)C#N)cc2)c2c3cc(-c4cnc5ccccc5c4)ccc3ncc21 [DACTOLISIB] | > 30 µM (inactive) | > 30 µM (inactive) |  | > 30 µM (inactive) | > 30 µM (inactive) | > 30 µM (inactive) |  |  |

Next, values leading:

| Kd [1] | Kd [2] | Kd [3] | Kd [4] | Kd [5] | Kd [6] | Kd [7] | Kd [8] | SMILES |
| --- | --- | --- | --- | --- | --- | --- | --- | --- |
| > 30 µM (inactive) | > 30 µM (inactive) | > 30 µM (inactive) | > 30 µM (inactive) | > 30 µM (inactive) | > 30 µM (inactive) | > 30 µM (inactive) | > 30 µM (inactive) | O=C(Nc1ccc(OC(F)(F)F)cc1)c1sccc1NCc1ccnc2ccccc12 [OSI-930] |
| > 30 µM (inactive) |  |  | > 30 µM (inactive) | > 30 µM (inactive) | > 30 µM (inactive) | > 30 µM (inactive) | > 30 µM (inactive) | CCOc1ccn(-c2ccc(F)cc2)c(=O)c1C(=O)Nc1ccc(Oc2ccnc(N)c2Cl)c(F)c1 [BMS-777607] |
